Key:
[1] = tested on: splenocytes (CD8^+ and CD4^+ T cells); test: Ex vivo splenocyte culture assay (antigen-independent T cell activation); assay type: cell-based, mice; conditions: 24 hours
[2] = Systemic administration of a high dose to normal mice for 4 weeks (autoimmune reactions); assay type: in vivo
Experimental: [FIG. 2-2] Continuation of FIG. 2. H to M: Compound 1 (100 mg/kg) or vehicle control (0.5% CMC-Na) was orally administered to 7-week-old female C57BL/6N mice twice daily for 7 continuous days (J and K) or once daily for 4 weeks (I, L, and M), while αPD-L1 antibody or isotype control (isotype IgG) was intraperitoneally injected once weekly. The experimental scheme is indicated in (H). Body weights (n=6/group) were monitored weekly (I). Mice were sacrificed on day 7 (n=5/group) to analyze peripheral blood (J) and spleen (K).
[FIG. 2-3] Continuation of FIG. 2. Land M: Mice were sacrificed on day 28 (n=3/group) to perform CD8 immunohistochemical staining (IHC). Scale bars represent 50 μm. The number of CD8+ cells was counted using ImageJ software in three areas of each tissue. All data are shown as the mean±SEM. Experiments were performed at least twice for B to G, or once for others. *** p<0.001 vs. vehicle control was determined using one-way ANOVA followed by Bonferroni's multiple comparisons test.
Next, to determine whether the enhancement of cancer immunity by co-administration of Compound 1 and αPD-L1 raises concerns regarding autoimmune reactions, a high dose of Compound 1 was systemically administered to normal mice for 4 weeks (FIG. 2-2H).

MC38 cells [3] = test: IFN-γ signaling and expression of MHC class I components and PD-L1 in MC38 cells; assay type: cell-based, murine; conditions: for decrease in PD-L1 expression on the cell surface / increase in H2-K^b expression: 72 hours
From the text: MHC class I expressed in cancer cells is critical for neoantigen presentation, which is indispensable for CD8^+ T cell-dependent immune surveillance and tumor killing. To investigate whether Compound 1 modulates the neoantigen presentation pathway, first, the effects of Compound 1 on IFN-γ signaling and the expression of MHC class I components, including […] (B2M) and H2-K^b in MC38 cells, were examined because CD8^+ T cell-secreted IFN-γ is a major inducer of MHC class I components. […] In contrast, any changes in the expression of PD-L1 were not detected in host dendritic cells or macrophages. […] However, these alterations were likely not the functional mechanisms through which Compound 1 exerts its antitumor effects (FIGS. 1-2O and 1-2P), as enhanced antitumor effects of Compound 1 were observed when co-administered with αPD-L1.

MC38 cells [4] = test: RT-PCR analysis with neojunction primers; assay type: cell-based, murine; conditions: 10 μM, 6 hours
Experimental: (§1) [FIG. 5-2] Continuation of FIG. 5. D and E: RT-PCR analysis for splice-neoantigen coding forms (splice-NA forms) in MC38 cells treated with 10 µM Compound 1 or vehicle control (0.1% DMSO) for 6 hours. Actb served as a loading control. * represents p<0.05, ** represents p<0.01, and *** represents p<0.001. F: Splice-neoantigen producing rates calculated from RNA-seq data (n=3 biological replicates) are indicated as the APSI (Compound 1-DMSO). All data are shown as the mean±SEM. All experiments were performed at least twice. Statistical significance was determined using unpaired Student's t-test for (B) and (E).
In addition to the RNA-seq analysis, the induction of these splice-neoantigen-coding transcripts via treatment with Compound 1 was also validated using RT-PCR analysis with neojunction primers in MC38 cells (FIGS. 5-2D and 5-2E). The immunogenicity of the identified splice-neoantigens was confirmed using an IFN-γ ELISpot assay.
Total RNA was extracted from cells using a RNeasy Mini Kit (Qiagen), according to the manufacturer's protocol, and subjected to reverse transcription using a High Capacity cDNA Reverse Transcription Kit (Applied Biosystems, Foster City, CA). Genes were amplified with KOD One DNA polymerase (ToYoBo) and target-specific primer sets. […] Ethidium bromide-stained images were captured using a ChemiDoc MP Imaging System and the data were analyzed using ImageJ software. […]

[5] = tested on: various murine cancer cell lines (LLC, Pan02, WEHI3, CT26, EG7, B16, MC38); test: RNA-seq analysis of splice-neoantigen producing events in various murine cancer cell lines; assay type: cell-based; conditions: LLC, Pan02, WEHI3, CT26, EG7, B16
Experimental: as §1
Then, whether the Compound 1-induced splice-neoantigens are shared across cancer type was examined using murine lung carcinoma LLC, pancreatic ductal adenocarcinoma Pan02, leukemia WEHI3, colorectal adenocarcinoma CT26, lymphoma EG7, and skin melanoma B16 cells.
The effects of Compound 2 on RNA splicing events (splicing alterations) producing the aforementioned six splice-neoantigens in various murine cancer cell lines were investigated through RNA-Seq analysis in the same manner as in FIG. 5-2F, except that Compound 1 was replaced with Compound 2 (FIG. 8).

[6] = tested on: IKBKAP gene with IVS20+6T>C mutation; conditions: in vitro and in vivo; cited from earlier work

In the case of `Clc1nc(NCc2ccco2)c2[nH]cnc2n1` [Compound 1], the “CD44^+ and CD69^+ marker expressions in CD8^+ and CD4^+ T cells” value ([1]; flow cytometry) is reported as “no such effects”, the “secretion of inflammatory cytokines IFN-γ and TNF-α” value ([1]; supernatant) is reported as “not observed” and the “leukocyte numbers and biochemical parameters in peripheral blood” value ([2]; data not shown) is reported as “no alterations were observed”. For the same compound, the “spleen weight, leukocyte numbers, and expression of T cell activation markers in spleen and peripheral blood” value ([2]; day 7, with or without αPD-L1) was “no effect”, the “histological analysis of non-malignant tissues: CD8^+ T cells, inflammatory lesions” value ([2]; day 28, irrespective of co-treatment with αPD-L1) was “did not result in the accumulation of CD8^+ T cells or appearance of inflammatory lesions” and the body weight changes ([2]; throughout 4 weeks, with or without αPD-L1) was “comparable”. For the same compound, the “phosphorylation of STAT1 and STAT3 and expression of B2M protein” value (MC38 cells [3]) was “no such effects”, the “decrease in PD-L1 expression on the cell surface” value (“decrease in PD-L1 expression” for short) (MC38 cells [3]; IFN-γ 0 ng/ml) was 3.8% and the “increase in H2-K^b expression” value (MC38 cells [3]; IFN-γ 0 ng/ml) was 11.1%. The “decrease in PD-L1 expression” value (MC38 cells [3]; IFN-γ 0.1 ng/ml) was 3.2%, the “increase in H2-K^b expression” value (MC38 cells [3]; IFN-γ 0.1 ng/ml) was 12.4% and the “decrease in PD-L1 expression” value (MC38 cells [3]; IFN-γ 1 ng/ml) was 26.1%. The splice-neoantigen-coding transcripts (MC38 cells [4]) was “induction”, the “induced splice alterations shared across cancer type” value [5] was “shared in most of the examined cells” and the “aberrant splicing in the IKBKAP gene” value [6] was “able to improve”.
